The species named for one data set is Homo sapiens. As to the kind of experiment: Selectivity ratio of IC50 for BRD4 (unknown origin) to IC50 for CREBBP (unknown origin).
The target of another data set is CREB-binding protein (Homo sapiens, UniProt Q92793). Kind of data set: Inhibition of CREBBP (unknown origin) by FRET assay.
Data set [1] can be described thus: Passive permeability of the compound at 2 uM by cell-based assay. The data set is classed as physicochemical. The settings on record: not told; read-out: permeability.
Data set [2] can be described thus: Lipophilicity, log D of the compound at pH 7.4 by shake flask method. The settings on record: buffer. Format: physicochemical.
In data set [3] the target is T1, Bromodomain-containing protein 4 (Homo sapiens, UniProt O60885). Kind of data set: Inhibition of BRD4 (unknown origin) by fluorescence polarization assay.
The target in data set [4] is Histone acetyltransferase p300 (Homo sapiens) (UniProt Q09472). As to the kind of experiment: Inhibition of human EP300 (1040 to 1161 residues) expressed in bacterial expression system at 10 uM by bromoscan assay.
Histone acetyltransferase p300 (Homo sapiens), sequence (Q09472 whole entry, the tested form may be a part): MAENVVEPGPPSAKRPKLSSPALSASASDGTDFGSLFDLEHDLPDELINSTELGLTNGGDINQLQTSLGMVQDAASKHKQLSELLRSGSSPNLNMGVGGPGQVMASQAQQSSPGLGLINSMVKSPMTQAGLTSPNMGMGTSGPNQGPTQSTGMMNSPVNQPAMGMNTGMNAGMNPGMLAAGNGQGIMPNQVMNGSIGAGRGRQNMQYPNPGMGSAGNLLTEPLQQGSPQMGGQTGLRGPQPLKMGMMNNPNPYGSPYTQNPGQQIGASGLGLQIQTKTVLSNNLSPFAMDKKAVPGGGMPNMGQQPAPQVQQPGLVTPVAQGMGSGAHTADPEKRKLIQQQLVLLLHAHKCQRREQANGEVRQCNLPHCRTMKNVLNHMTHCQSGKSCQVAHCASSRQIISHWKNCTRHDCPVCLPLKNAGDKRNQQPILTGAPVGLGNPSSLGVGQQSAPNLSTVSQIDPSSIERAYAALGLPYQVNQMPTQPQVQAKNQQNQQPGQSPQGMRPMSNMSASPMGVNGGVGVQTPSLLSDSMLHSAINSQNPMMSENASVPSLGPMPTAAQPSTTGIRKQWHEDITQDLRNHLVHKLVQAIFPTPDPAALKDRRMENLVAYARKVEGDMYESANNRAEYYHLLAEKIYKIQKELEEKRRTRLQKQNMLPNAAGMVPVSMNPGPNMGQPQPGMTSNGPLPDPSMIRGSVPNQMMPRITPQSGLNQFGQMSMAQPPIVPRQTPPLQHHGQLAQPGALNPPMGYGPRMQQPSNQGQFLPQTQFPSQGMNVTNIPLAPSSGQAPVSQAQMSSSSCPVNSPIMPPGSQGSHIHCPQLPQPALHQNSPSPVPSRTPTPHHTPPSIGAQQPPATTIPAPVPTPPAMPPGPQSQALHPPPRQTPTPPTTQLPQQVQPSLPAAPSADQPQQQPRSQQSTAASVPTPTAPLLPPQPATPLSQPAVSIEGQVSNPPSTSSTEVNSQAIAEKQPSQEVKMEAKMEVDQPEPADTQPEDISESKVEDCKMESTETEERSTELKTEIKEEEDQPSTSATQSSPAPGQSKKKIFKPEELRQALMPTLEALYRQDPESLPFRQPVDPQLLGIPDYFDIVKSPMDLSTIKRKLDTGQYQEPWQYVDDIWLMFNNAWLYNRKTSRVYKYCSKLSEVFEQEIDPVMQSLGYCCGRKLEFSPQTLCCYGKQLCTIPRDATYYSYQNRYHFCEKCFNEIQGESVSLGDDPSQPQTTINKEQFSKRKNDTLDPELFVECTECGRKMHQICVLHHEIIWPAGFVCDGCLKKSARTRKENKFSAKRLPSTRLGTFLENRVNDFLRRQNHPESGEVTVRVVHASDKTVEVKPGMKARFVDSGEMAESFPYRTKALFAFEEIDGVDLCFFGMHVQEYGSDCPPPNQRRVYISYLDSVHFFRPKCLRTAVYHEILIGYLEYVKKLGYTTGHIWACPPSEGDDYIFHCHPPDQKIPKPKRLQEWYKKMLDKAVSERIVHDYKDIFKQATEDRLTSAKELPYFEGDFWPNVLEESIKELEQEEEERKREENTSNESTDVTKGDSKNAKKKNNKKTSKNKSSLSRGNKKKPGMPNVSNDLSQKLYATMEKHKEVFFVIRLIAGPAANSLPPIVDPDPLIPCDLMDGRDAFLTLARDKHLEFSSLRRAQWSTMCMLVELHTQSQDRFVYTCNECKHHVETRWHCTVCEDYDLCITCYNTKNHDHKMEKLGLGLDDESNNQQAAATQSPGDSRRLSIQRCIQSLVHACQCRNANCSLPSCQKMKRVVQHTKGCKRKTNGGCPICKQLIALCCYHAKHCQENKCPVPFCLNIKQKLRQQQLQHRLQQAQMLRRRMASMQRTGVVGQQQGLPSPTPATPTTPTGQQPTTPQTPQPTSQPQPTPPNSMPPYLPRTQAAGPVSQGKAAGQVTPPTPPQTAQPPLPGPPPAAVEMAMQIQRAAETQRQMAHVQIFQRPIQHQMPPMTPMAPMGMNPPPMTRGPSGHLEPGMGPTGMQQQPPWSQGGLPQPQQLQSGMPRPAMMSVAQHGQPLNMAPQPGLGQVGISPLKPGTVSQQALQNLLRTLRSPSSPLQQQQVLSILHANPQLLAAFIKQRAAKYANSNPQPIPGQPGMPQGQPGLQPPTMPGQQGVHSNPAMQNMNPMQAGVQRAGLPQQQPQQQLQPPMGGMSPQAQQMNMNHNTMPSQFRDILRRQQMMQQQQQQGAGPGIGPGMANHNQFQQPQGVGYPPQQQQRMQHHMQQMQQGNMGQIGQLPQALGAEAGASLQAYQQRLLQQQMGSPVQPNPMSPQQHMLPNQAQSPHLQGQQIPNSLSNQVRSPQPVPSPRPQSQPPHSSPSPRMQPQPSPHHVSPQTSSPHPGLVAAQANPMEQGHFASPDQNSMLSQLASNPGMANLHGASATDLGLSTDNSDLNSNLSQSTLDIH
For data set [5], the target named is T1, Bromodomain-containing protein 4. As to the kind of experiment: Inhibition of human BRD4 by fluorescence polarization assay. On the technique in general: Polarisation of emitted light reports the rotation of a fluorescent probe.
Data set [6] addresses T2, Alpha-1A adrenergic receptor (Homo sapiens, UniProt P35348).
T2 sequence (P35348 whole entry): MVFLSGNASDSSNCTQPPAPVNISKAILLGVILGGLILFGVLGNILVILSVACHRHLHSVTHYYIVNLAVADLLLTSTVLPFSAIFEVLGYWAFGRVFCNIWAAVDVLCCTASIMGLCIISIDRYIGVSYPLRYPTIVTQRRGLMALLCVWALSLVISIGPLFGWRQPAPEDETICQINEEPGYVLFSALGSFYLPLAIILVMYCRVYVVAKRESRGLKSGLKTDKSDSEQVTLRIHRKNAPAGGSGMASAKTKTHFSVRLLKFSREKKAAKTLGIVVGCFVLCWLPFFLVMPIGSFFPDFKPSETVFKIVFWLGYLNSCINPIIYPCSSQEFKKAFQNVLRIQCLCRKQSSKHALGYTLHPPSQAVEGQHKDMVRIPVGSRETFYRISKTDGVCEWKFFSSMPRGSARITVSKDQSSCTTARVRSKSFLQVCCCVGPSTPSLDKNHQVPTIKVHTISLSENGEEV
Kind of data set: Displacement of [3H]prazosin from recombinant human adrenergic A1a receptor after 60 mins by scintillation counting method. For orientation: Loss of bound radioactivity is the signal in a displacement assay; it reports binding, not function.

The target in data set [7] is Voltage-gated L-type calcium channel (Homo sapiens, UniProt Q13936+Q13698+Q01668+O60840). Kind of data set: Inhibition of L-type calcium channel (unknown origin).
Data set [8] can be described thus: Intrinsic clearance in human microsomes at 1 uM. Format: ADME, Microsome.
The target in data set [9] is T1, Bromodomain-containing protein 4. As to the kind of experiment: Binding affinity to BRD4 (unknown origin) at 75 to 100 uM by isothermal titration assay.

The text below walks through data of ChEMBL document CHEMBL4011614 (J Med Chem, 2017).

The source made the active and inactive calls. The rule behind the calls is not given here. A value given as a limit tells only on which side of the number the result lay.

CREB-binding protein, sequence (Q92793 whole entry): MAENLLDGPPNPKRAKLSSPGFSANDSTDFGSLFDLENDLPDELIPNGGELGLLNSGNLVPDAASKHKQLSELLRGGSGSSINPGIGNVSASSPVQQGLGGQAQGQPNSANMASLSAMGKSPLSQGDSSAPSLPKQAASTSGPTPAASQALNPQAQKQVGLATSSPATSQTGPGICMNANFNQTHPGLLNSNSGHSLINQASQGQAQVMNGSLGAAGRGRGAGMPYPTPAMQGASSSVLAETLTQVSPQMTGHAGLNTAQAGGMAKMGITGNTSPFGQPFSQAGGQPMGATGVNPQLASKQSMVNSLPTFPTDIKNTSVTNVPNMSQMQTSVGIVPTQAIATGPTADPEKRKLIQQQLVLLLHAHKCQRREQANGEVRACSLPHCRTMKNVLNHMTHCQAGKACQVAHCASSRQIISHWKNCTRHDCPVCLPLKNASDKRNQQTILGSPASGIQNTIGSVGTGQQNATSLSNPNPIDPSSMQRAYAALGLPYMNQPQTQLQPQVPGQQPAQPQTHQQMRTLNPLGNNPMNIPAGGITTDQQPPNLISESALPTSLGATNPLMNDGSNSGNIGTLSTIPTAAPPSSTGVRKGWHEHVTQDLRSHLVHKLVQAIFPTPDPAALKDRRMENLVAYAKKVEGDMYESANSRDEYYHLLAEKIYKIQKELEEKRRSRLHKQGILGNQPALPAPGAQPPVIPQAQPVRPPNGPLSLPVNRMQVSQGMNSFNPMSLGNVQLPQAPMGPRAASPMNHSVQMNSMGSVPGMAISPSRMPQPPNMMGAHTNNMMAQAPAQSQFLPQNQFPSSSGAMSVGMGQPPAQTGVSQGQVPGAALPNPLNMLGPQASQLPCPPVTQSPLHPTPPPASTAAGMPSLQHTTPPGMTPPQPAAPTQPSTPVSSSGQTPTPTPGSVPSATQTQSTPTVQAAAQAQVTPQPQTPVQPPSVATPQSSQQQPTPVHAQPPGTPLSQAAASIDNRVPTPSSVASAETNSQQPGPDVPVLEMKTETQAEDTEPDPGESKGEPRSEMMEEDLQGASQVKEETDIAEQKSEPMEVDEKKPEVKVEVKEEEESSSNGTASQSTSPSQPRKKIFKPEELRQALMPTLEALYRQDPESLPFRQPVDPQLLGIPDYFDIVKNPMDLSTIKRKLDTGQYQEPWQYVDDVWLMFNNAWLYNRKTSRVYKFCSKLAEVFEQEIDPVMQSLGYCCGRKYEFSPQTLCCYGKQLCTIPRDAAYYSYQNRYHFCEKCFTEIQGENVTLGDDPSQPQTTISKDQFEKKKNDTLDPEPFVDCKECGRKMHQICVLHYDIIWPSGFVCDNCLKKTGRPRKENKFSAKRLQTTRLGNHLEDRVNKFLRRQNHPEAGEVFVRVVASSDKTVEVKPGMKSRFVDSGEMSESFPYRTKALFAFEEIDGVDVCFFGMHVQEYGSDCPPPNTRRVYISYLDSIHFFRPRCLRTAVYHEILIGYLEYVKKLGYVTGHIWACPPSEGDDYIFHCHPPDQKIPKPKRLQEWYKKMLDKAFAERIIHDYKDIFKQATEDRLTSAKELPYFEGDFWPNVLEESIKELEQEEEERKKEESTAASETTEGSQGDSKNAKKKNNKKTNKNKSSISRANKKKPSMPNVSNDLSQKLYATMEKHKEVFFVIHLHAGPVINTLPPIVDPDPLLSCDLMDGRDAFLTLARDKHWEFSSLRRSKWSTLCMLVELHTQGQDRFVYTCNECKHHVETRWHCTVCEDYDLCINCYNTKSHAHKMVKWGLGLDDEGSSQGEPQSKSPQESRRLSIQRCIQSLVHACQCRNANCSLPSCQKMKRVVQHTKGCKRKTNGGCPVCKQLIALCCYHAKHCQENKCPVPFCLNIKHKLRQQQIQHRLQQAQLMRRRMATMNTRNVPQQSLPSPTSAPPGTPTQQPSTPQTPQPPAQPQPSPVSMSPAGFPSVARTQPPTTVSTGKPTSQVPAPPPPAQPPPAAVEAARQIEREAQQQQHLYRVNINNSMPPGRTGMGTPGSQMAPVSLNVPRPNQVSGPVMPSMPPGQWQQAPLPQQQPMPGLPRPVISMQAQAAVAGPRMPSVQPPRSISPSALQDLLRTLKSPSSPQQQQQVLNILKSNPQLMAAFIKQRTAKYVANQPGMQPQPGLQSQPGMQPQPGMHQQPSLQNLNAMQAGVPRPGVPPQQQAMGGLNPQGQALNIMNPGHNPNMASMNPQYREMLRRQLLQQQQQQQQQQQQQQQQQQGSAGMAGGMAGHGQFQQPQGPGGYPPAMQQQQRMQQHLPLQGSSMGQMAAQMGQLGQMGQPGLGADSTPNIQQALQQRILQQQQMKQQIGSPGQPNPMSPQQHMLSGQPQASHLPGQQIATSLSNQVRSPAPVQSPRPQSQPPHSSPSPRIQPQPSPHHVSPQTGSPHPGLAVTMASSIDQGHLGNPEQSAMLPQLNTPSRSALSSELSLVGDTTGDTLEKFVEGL

With `COc1ccc(CCc2cc3nc(-c4c(C)noc4C)ccc3n2CCN2CCOCC2)cc1`, in the data set listed under Homo sapiens, the Ratio IC50 is more than 100. Moreover, the IC50 on CREB-binding protein worked out at 170 nM; in data set [3], 18400 nM. For the same molecule, the Papp at 2 µM in data set [1] was 6.8 ×10⁻⁶ cm/s. The log distribution coefficient (logD) in data set [2] was 3.29. Besides, the inhibition entry in data set [4] is “Active”.
In turn, `COc1ccc(CCc2nc3cc(-c4c(C)noc4C)ccc3n2C[C@H](C)N2CCOCC2)cc1Cl` came in with a half-maximal inhibitory concentration (IC50) in data set [5] of 5850 nM.
`Cc1noc(C)c1-c1ccc2c(c1)nc1n2[C@H](CN2CCOCC2)CC1Cc1ccccc1` (single isomer, unassigned; 31) [listing 1 of 2 here]: the IC50 is 450 nM at CREB-binding protein and 2000 nM in [3].
Regarding `Cc1noc(C)c1-c1ccc2c(c1)nc(CCc1cccnc1)n2CCN1CCOCC1`, in the data set filed under Homo sapiens, the Ratio IC50 turned out to be 7.4. The half-maximal inhibitory concentration (IC50) on CREB-binding protein stood at 780 nM; in [3], 5800 nM.
Consider `COc1ccc(CCc2nc3cc(-c4c(C)noc4C)ccc3n2CCN2CCOCC2)cc1OC`, for which the Ratio IC50 in the data set listed under Homo sapiens is 20. Besides, the values for the half-maximal inhibitory concentration (IC50) (on CREB-binding protein; in data set [3]) were 470 nM and 9400 nM, respectively.
The like results for `CCCCOc1ccc(CCc2nc3cc(-c4c(C)noc4C)ccc3n2CCN2CCOCC2)cc1` were, in that order, 43, 260 nM and 11200 nM.
Turning to `CCCOc1ccc(CCc2nc3cc(-c4c(C)noc4C)ccc3n2CCN2CCOCC2)cc1`, the Ratio IC50 in the data set listed under Homo sapiens stood at 62. Also, the results for the IC50 in data set [6] and in [7] were 620 nM and 3000 nM, respectively. Further, the Papp at 2 µM in data set [1] amounted to 7.9 ×10⁻⁶ cm/s. In data set [8], this molecule registered an intrinsic metabolic clearance (microsomal CLint) at 1 µM of more than 300 µL/min/mg. In data set [9], the result was inactive. For the same molecule, the inhibition result in data set [4] is “Active”.
Take `Cc1noc(C)c1-c1ccc2c(c1)nc([C@@H]1CCO[C@H]1c1ccccc1)n2CCN1CCOCC1`: the Ratio IC50 in the data set listed under Homo sapiens came out at 6. Moreover, the IC50 on CREB-binding protein stood at 76 nM; in data set [3], 490 nM.
The like results for `Cc1noc(C)c1-c1ccc2c(c1)nc(CCc1ccc(N(C)C)cc1)n2CCN1CCOCC1` were, in that order, 20, 210 nM and 4300 nM.
The like results for `Cc1noc(C)c1-c1ccc2c(c1)nc(CCc1ccccc1)n2CCN1CCOCC1` were, in that order, 17, 240 nM and 4100 nM.
As for `Cc1noc(C)c1-c1ccc2c(c1)nc(COc1ccccc1)n2CCN1CCOCC1`, in the data set filed under Homo sapiens, the Ratio IC50 worked out at 36. The half-maximal inhibitory concentration (IC50) is 400 nM at CREB-binding protein and 14400 nM in [3].
For `Cc1noc(C)c1-c1ccc2c(c1)nc(-c1cnn3c1CCC3)n2CCN1CCOCC1`, in that order: 12, 130 nM and 1600 nM.
For `CCOc1ccc(CCc2nc3cc(-c4c(C)noc4C)ccc3n2CCN2CCOCC2)cc1`, in that order: 51, 130 nM and 6600 nM.
For the molecule `CC(=O)Nc1ccc(CCc2nc3cc(-c4c(C)noc4C)ccc3n2CCN2CCOCC2)cc1`, the Ratio IC50 in the data set filed under Homo sapiens is 7. The concentration for half-maximal inhibition (IC50) at CREB-binding protein was determined as 200 nM; in data set [3], 1400 nM.
The like results for `Cc1noc(C)c1-c1ccc2c(c1)nc(CCc1ccc(N)cc1)n2CCN1CCOCC1` were, in that order, 38, 90 nM and 3400 nM.
As to `Cc1noc(C)c1-c1ccc2c(c1)nc1n2[C@H](CN2CCOCC2)CC1Cc1ccccc1` (single isomer, unassigned; 32) [listing 1 of 2 here], the Ratio IC50 in the data set filed under Homo sapiens was more than 62.
As for `COc1ccc(CCc2nc3cc(-c4c(C)noc4C)ccc3n2CCN2CCOCC2)c(OC)c1`, the Ratio IC50 in the data set filed under Homo sapiens stood at 35. Further, the IC50 on CREB-binding protein came out at 240 nM; in data set [3] it was 8300 nM.
The like results for `Cc1noc(C)c1-c1ccc2c(c1)nc(CCc1ccccc1)n2CC(=O)N1CCOCC1` were, in that order, 37, 360 nM and 13200 nM.
With `Cc1noc(C)c1-c1ccc2c(c1)nc1n2[C@H](CN2CCOCC2)CC1Cc1ccccc1` (single isomer, unassigned; 31) [listing 2 of 2 here], the Ratio IC50 in the data set filed under Homo sapiens came to 4.
Regarding `COc1ccc([C@H]2OCC[C@@H]2c2nc3cc(-c4c(C)noc4C)ccc3n2CCN2CCOCC2)cc1`, the Ratio IC50 in the data set filed under Homo sapiens was 67. The IC50 at CREB-binding protein amounted to 140 nM; in data set [3] it was 9400 nM.
For `COc1ccc(OCc2nc3cc(-c4c(C)noc4C)ccc3n2CCN2CCOCC2)cc1`, in that order: 10, 920 nM and 9200 nM.
Turning to `Cc1noc(C)c1-c1ccc2c(c1)nc(CCc1c[nH]c3ccccc13)n2CCN1CCOCC1`, the Ratio IC50 in the data set listed under Homo sapiens amounted to 14. The IC50 at CREB-binding protein was 740 nM; in [3] it was 10100 nM.
For `Cc1noc(C)c1-c1ccc2c(c1)nc(CCc1ccccn1)n2CCN1CCOCC1`, in that order: 10, 330 nM and 3200 nM.
For `Cc1noc(C)c1-c1ccc2c(c1)nc(CCc1ccc(OC(C)C)cc1)n2CCN1CCOCC1`, in that order: 23, 200 nM and 4500 nM.
On to `Cc1n[nH]c(C)c1-c1ccc2c(c1)nc(CCc1ccccc1)n2CCN1CCOCC1`, for which the IC50 at CREB-binding protein was 2400 nM; in data set [3], more than 10000 nM.
In data set [3], `Cc1noc(C)c1-c1ccc2c(c1)nc(CCc1ccc(OC(F)(F)F)cc1)n2CCN1CCOCC1` showed a half-maximal inhibitory concentration (IC50) of 18500 nM.
On to `CCc1noc(C)c1-c1ccc2c(c1)nc(CCc1ccccc1)n2CCN1CCOCC1`, for which the results for the concentration for half-maximal inhibition (IC50) (at CREB-binding protein; in data set [3]) were 310 nM and 6000 nM, respectively.
As for `COc1cc(-c2ccc3c(c2)nc(CCc2ccccc2)n3CCN2CCOCC2)cccc1=O`, the half-maximal inhibitory concentration (IC50) on CREB-binding protein came to 210 nM; in data set [3], 350 nM.
With `Cc1noc(C)c1-c1ccc2c(c1)nc(CCc1ccncc1)n2CCN1CCOCC1`, the Ratio IC50 in the data set listed under Homo sapiens was 10. The concentration for half-maximal inhibition (IC50) at CREB-binding protein worked out at 400 nM; in [3] it was 4100 nM.
As to `CCn1cc(-c2ccc3c(c2)nc(CCc2ccccc2)n3CCN2CCOCC2)ccc1=O`, the results for the IC50 (on CREB-binding protein; in [3]) were 500 nM and 3900 nM, respectively.
For the molecule `Cc1noc(C)c1-c1ccc2c(c1)nc(CCc1ccc(C#N)cc1)n2CCN1CCOCC1`, the Ratio IC50 in the data set filed under Homo sapiens is 16. The values for the IC50 (at CREB-binding protein; in data set [3]) were 300 nM and 4900 nM, respectively.
With `COc1ccc(CCc2c(C#N)c3cc(-c4c(C)noc4C)ccc3n2CCN2CCOCC2)cc1`, the Ratio IC50 in the data set listed under Homo sapiens is more than 240. Besides, the results for the IC50 (at CREB-binding protein; in data set [3]) were 500 nM and more than 120000 nM, respectively.
The like results for `Cc1noc(C)c1-c1ccc2c(c1)nc(CCc1cncc3ccccc13)n2CCN1CCOCC1` were, in that order, 7, 2500 nM and 16800 nM.
Consider `COc1ccccc1CCc1nc2cc(-c3c(C)noc3C)ccc2n1CCN1CCOCC1`, for which, in the data set filed under Homo sapiens, the Ratio IC50 was 14. Further, the IC50 came out at 980 nM on CREB-binding protein and 13900 nM in data set [3].
On to `Cc1nc(C)n(-c2ccc3c(c2)nc(CCc2ccccc2)n3CCN2CCOCC2)n1`, for which the IC50 at CREB-binding protein was more than 30000 nM; in data set [3] it was more than 120000 nM.
On to `CCCCCOc1ccc(CCc2nc3cc(-c4c(C)noc4C)ccc3n2CCN2CCOCC2)cc1`, for which the Ratio IC50 in the data set listed under Homo sapiens worked out at 10. Besides, the concentration for half-maximal inhibition (IC50) on CREB-binding protein is 690 nM; in data set [3], 6900 nM.
As for `COc1ccc(CCc2cc3cc(-c4c(C)noc4C)ccc3n2CCN2CCOCC2)cc1`, the half-maximal inhibitory concentration (IC50) on CREB-binding protein was 1500 nM; in data set [3] it was more than 120000 nM.
With `COc1cccc(CCc2nc3cc(-c4c(C)noc4C)ccc3n2CCN2CCOCC2)c1`, the Ratio IC50 in the data set filed under Homo sapiens came to 15. The IC50 turned out to be 310 nM at CREB-binding protein and 4600 nM in data set [3].
For the molecule `Cc1noc(C)c1-c1ccc2c(c1)nc(CCc1ccc3ccccc3n1)n2CCN1CCOCC1`, the Ratio IC50 in the data set filed under Homo sapiens is 31. Moreover, the values for the half-inhibitory concentration (IC50) (on CREB-binding protein; in data set [3]) were 160 nM and 4900 nM, respectively.
Take `Cc1noc(C)c1-c1ccc2c(c1)nc1n2[C@H](CN2CCOCC2)CC1Cc1ccccc1` (single isomer, unassigned; 32) [listing 2 of 2 here]: the 50% inhibitory concentration (IC50) is 1300 nM at CREB-binding protein and more than 80000 nM in data set [3].

The term IC50 denotes the concentration needed to halve the response being measured. One may read the logD as lipophilicity at a set pH, counting ionised and neutral species. The low end stands for a more hydrophilic compound, the high end for a more lipophilic compound. As a reminder, the microsomal CLint is the rate of metabolic loss divided by the concentration. A low value points to slow turnover.
